Test system: MCF7 xenografts
Experiment: Tumor growth (BLI) of MCF7 mammary fat pad xenografts treated with HT
Format: in vivo, mice
Details: weekly fulvestrant, FIG. 2a
From the text: (Panel a) Representative tumor growth kinetics (BLI) of GFP+/Luciferase+MCF7 xenografts (n=10) treated with weekly fulvestrant once mammary fat pad tumors were established (after 3 months) which led to a period (4 months) of disease stability on HT (HTS) followed by exponential growth on HT (HTR). Representative H&E images of tumors and primary cultures from unsorted as well as FACS purified cancer cells (GFP+/Epcam+) and murine CAFs (GFP−/Epcam). Scale bar 20 μm. (Panel b) OXPHOS potential in tumor-derived cancer cells (panel a) was measured±HT (fulvestrant, 10 μM) by Seahorse. (Panel c) mtDNA/nDNA (human and murine) level as Fold change (log10scale) in cancer cells and mCAFs isolated from HTS and HTR disease (panel a). (Panel d) Percentage of metastatic lesions isolated by FACS from tumor-bearing mice (n=8/group) expressing murine mtDNA as determined by ND1 qPCR (2 ng of total DNA). Oxygen consumption rates (OCR) in murine-mtDNApos and ctrl HTR cells determined by Seahorse. (Panel e) Murine mitochondrial RNA expression (12 genes: ND1, ND2, COX2, ATP8, ATP6, COX3, ND3, ND4L, ND4, ND5, ND6, CytB) as fold change (logioscale) determined by qRT-PCR in HTR and HTS cells (panel a). […]
All cancer cell lines were engineered to express a GFP positive luciferase expression vector for in vitro and in vivo imaging studies. […] EV-number was determined by Nanosight. […]

C[C@]12CC[C@@H]3c4ccc(O)cc4C[C@@H](CCCCCCCCC[S+]([O-])CCCC(F)(F)C(F)(F)F)[C@H]3[C@@H]1CC[C@@H]2O (stereo partly shown) [fulvestrant]
growth pattern of tumors in tumor-bearing mice treated with HT: no growth for 4 months (HTS) followed by exponential growth (HTR)
